# Columns and labels:
# [1] = test system: GRK2 translocation in differentiated HL60 cells; experiment: fMLP-dependent GRK2 translocation to membrane in differentiated HL60 cells; type: cell-based, human; conditions: 10 μM compound, 250 nM fMLP; result in words
# Description: (§1) Cells were pretreated with DMSO or 10 μM compounds for 5 min prior to stimulation with 250 nM fMLP. […] Normalized peak Ca^2+ responses were pooled from three independent experiments each (mean±SEM). Cells were pretreated with DMSO (▪) or compounds (▴) for 5 min prior to stimulation. FIG. 5C is the same as A except 10 μM M201 was tested. […] Differentiated HL60 cells were treated with 10 μM compound prior to stimulation with 250 nM fMLP. Translocation of endogenous GRK2 was determined by Western blotting with a GRK2 antibody and quantitative chemiluminescence. Data are mean±SEM from 5 experiments, * P<0.05, **P<0.01 ANOVA. […] Differentiated HL60 cells stably over-expressing GFP-PHAkt were treated with 10 μM compound prior to stimulation with 100 nM fMLP. Translocation of GFP-PHAkt to the membrane was determined by Western blotting with an anti-GFP antibody and quantitative chemiluminescence. Data are mean±SEM from 4 experiments. *** P<0.001 ANOVA. […] Differentiated HL60 cells were pretreated with 10 μM of compound prior to stimulation with 1 μM fMLP for 5 min. Levels of phosphorylated and total ERK were determined by Western blotting.
# [2] = test system: acute morphine antinociceptive tolerance in mice; experiment: Acute morphine antinociceptive tolerance (repeated i.c.v. dosing, tail-flick); type: in vivo, mouse
# [3] = test system: human μ opioid receptor (hMOR-CHO cells); experiment: Total inositol phosphate assay in hMOR-CHO cells; type: cell-based; conditions: 10 μM; result in words
# Description: (§2) Chinese hamster ovary (CHO) cells stably expressing either the human κ (hKOR-CHO), δ (hDOR-CHO)(L. Toll, Stanford Research Institute, Palo Alto, Calif.) or μ (hMOR-CHO)(G. Uhl, National Institute on Drug Abuse, Baltimore, Md.) opioid receptor were used in the experiments. Cells in 6-well plates were labeled by adding 4 μCi of [^3H]inositol for 24 hr in inositol-free F-10 media, without serum. After labeling, LiCl was added directly to the labeling media at a final concentration of 10 mM. Ligands or peptides were added at the same time. The final volume of each well was 1 mL. The plates were put back in to the incubator at 37° C. for 30 min after which time the medium was aspirated and the plates were washed twice with 1× PBS. Ice-cold 50 mM formic acid, 1 mL, was added to the plates which were placed in the cold room at 4° C. for 30 min. After the incubation, the contents of the plates were applied to Dowex AG1-X8 columns and allowed to flow all the way through the column. The columns were washed, twice each, with 50 and 100 mM formic acid, for a total of four washes, followed by elution of the IP-containing fraction with 3 mL of 1.2 M ammonium formate/0.1 M formic acid. The eluted fraction was mixed with Scintisafe scintillation fluid, for high salt, and counted. The data are represented as the fold increase over control in total inositol phospates. All experiments were repeated three times and performed in duplicate. Control cells for each experiment were labeled with [^3H]inositol and LiCl, in the same manner as the treatment groups.
# [4] = test system: naloxone-precipitated morphine withdrawal in mice; experiment: Acute morphine physical dependence (naloxone-precipitated jumping); type: in vivo, mouse; conditions: morphine 100 mg/kg s.c. −4 hr; M119 100 nmol i.c.v. 30 min before naloxone 10 mg/kg i.p.
# Description: Prior to the administration of naloxone (30 min) mice were injected with vehicle, i.c.v. Withdrawal was precipitated by an injection of the opioid antagonist, naloxone (10 mg/kg, i.p.). Mice were immediately placed in a clear cylinder and observed for 15 min. The number of vertical jumps was recorded during this time.
# [5] = test system: ATP-dependent Ca2+ increase in differentiated HL-60 neutrophils; experiment: ATP-dependent Ca2+ increase in differentiated HL-60 neutrophils; type: cell-based, human; conditions: result in words
# Description: (Collins, et al. (1978) Proc. Natl. Acad. Sci. USA 75:2458; Collins, et al. (1979) J. Exp. Med. 149:969). Neutrophils were preloaded with fura-2 (1 μM), a fluorescent Ca^2+-sensitive indicator (Suh, et al. (1996) J. Biol. Chem. 271:32753), for 45 minutes, washed with HBSS and resuspended in 2 mL of indicator-free HBSS. An 140 μL aliquote of cells was added to a total of 2 mL HBSS. Fluorescence ratios were taken by dual excitation at 340 and 380 nm and emission at 510 nm. After a stable baseline was established, either DMSO or NSC119910 was added and incubated for 5 minutes. Subsequently, either fMLP or ATP agonists were added to activate release of Ca^2+ from intracellular stores.
# [6] = test system: M3 muscarinic receptor-dependent Ca2+ release in HEK-293 cells; experiment: Carbachol-dependent Ca2+ release in HEK-293 cells expressing M3 muscarinic receptor; type: cell-based; conditions: 10 μM; result in words
# [7] = test system: ERK1 and ERK2 activation in differentiated HL60 cells; experiment: fMLP-induced ERK1 and ERK2 activation in differentiated HL60 cells; type: cell-based, human; conditions: 10 μM compound, 1 μM fMLP, result in words
# Description: as §1
# Fαi1GDPβ1γ2 heterotrimer = target: T1, Fαi1GDPβ1γ2 heterotrimer (UniProt P54311+P63212); experiment: Dissociation of Fαi1 from preformed Fαi1β1γ2 heterotrimer (flow cytometry); type: binding; conditions: result in words
# T1 construct: made in house; host or cells: b-βγ: Sf9 insect cells
# Description: Assays were used to determine peptide effects on Gα-Gβγ interactions included competition and dissociation assays (Ghosh, et al. (2003) supra). […] To measure dissociation of Fan from b-Gβaγ2, 100 pM of Fa^ was incubated with 50 pM immobilized b-Gβ1γ2 at room temperature for 15-20 minutes. The fluorescence of bound Fαii subunit was measured, followed by the addition of a 200-fold excess of unlabeled Gcx±x or peptides and the amount of Fan remaining bound to the beads was measured at the indicated times.
# The ability of peptides to dissociate a preformed hetero-trimer was assessed by comparing the rates of Fαi1 dissociation from Fαi1β1γ2 with excess unlabeled αi1 competitor (intrinsic dissocia-tion rate) and in the presence of a saturating concentration of peptide.
# [8] = test system: human δ opioid receptor (hDOR-CHO cells); experiment: Total inositol phosphate assay in hDOR-CHO cells; type: cell-based; conditions: DPDPE, Deltorphin II, M119 10 μM; naltrindole 100 μM; result in words
# Description: as §2
# [9] = test system: morphine-dependent antinociception in PLCβ3 −/− mice; experiment: 55° C. tail-flick antinociception in PLCβ3 −/− mice; type: in vivo, mouse; conditions: 100 nmol i.c.v.; result in words
# [10] = test system: cAMP generation in adult mouse cardiomyocytes; experiment: cAMP generation in isolated adult mouse cardiomyocytes; type: cell-based; conditions: 10 μM M119 5 min pre-treatment, 100 nM isoproterenol 15 min; result in words
# Description: Isolated cardiomyocytes were treated with vehicle (V) or 100 nM isoproterenol (I) for 15 minutes in the presence or absence of a 5 minute pre-treatment with 10 μM M119 (M). Forskolin treatment, which directly activates adenylyl cyclase, was used as a control.
# Gβ1γ2 = Gβ1γ2 (UniProt P54311+P63212); set-up: made in house; host or cells: Sf9 insect cells (baculovirus; co-expressed with BirA and (His)6-Gαi1, from which βγ was eluted); conditions: Table 20, competition ELISA for SIGK binding; data from Bonacci et al. (2006); cited from earlier work
# Sequence of Gβ1γ2 (P54311 whole entry): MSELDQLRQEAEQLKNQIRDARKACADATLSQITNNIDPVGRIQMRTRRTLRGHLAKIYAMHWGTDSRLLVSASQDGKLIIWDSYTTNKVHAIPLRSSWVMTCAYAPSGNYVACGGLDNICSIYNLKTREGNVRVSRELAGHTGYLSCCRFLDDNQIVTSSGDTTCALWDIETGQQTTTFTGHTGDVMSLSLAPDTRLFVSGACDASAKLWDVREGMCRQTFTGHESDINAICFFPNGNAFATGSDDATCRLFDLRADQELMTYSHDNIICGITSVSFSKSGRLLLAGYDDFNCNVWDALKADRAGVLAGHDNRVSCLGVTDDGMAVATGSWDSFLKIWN
# Sequence of Gβ1γ2 (P63212 2-68 limits assumed): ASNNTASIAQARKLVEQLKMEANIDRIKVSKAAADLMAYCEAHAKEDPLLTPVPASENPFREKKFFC
# T1 sequence (P54311 whole entry): as the sequence (P54311 whole entry) above
# T1 sequence (P63212 2-68 limits assumed): as the sequence (P63212 2-68 limits assumed) above
SMILES,effect on fMLP-dependent GRK2 translocation to the membrane fraction [1],ED50 of morphine co-administered with M119 ([2]; 6 hr),ED50 of morphine co-administered with M119 ([2]; time 0),effect of compound by itself on IP production [3],effect on DAMGO- and morphine-dependent IP production [3],number of vertical jumps in the 15-min counting period [4],effect on ATP-induced [Ca^2+] increase [5],effect on carbachol-dependent increases in Ca^2+ [6],effect on fMLP-induced activation of ERK1 and ERK2 [7],effect on fMLP-induced activation of ERK1 and ERK2 ([7]; listed as NSC119910),promotion/acceleration of heterotrimer dissociation (Fαi1GDPβ1γ2 heterotrimer),effect on IP generation over control treated cells [8],effect on morphine-dependent antinociception in PLCβ3 −/− mice [9],effect on cAMP generation at baseline and with isoproterenol [10],IC50 (Gβ1γ2)
"O=C(O)C1CCCCC1c1c2ccc(=O)c(O)c-2oc2c(O)c(O)ccc12 (stereo not drawn) [Compound M119, cyclohexanecarboxylic acid, 2-(4,5,6-trihydroxy-3-oxo-3H-xanthen-9-yl)-(9cl)]",substantially inhibited,0.22 nmol,0.16 nmol,no effect by itself,significantly attenuated,23±14,not significantly suppressed,no effect,did not block,without interfering,did not promote dissociation,no significant effect,no effect,enhanced,–
O=C(O)C1CCCCC1c1c2ccc(=O)cc-2oc2cc(O)ccc12 (stereo not drawn) [Compound M119B],–,–,–,–,–,–,–,–,–,–,–,–,–,–,> 300 µM

# Reference: patent US8975259B2, “Compositions and methods for inhibiting G protein signaling” (University of Rochester, priority 2007, dated 2015)
